In brackets after ≈: the same amount, converted by molar mass.
Legend:
[1] = Solubility in physiologic buffer (PBS, pH 7.4) by nephelometry; assay type: physicochemical; conditions: aqueous buffer, thermodynamic from solid, phosphate buffered saline, top concentration 500 mg/mL, serial 1:2 dilutions
Method: (§1) The solubility of Compound 45 and carnosine in physiologic buffer (phosphate buffered saline, pH 7.4; PBS) were determined using a BMG Labtech NEPHELOstar nephelometer (Offenburg, Germany) with Galaxy analytical software, version 4.32R2. Stock solutions of each compound were prepared initially in dimethyl sulfoxide (DMSO); Compound 45 was soluble at a concentration of 50 mM in DMSO, while carnosine was not. Subsequently, dilution series of both compounds were prepared directly in PBS (pH 7.4) for evaluation of solubility using nephlometry, with a top concentration of 500 mg/mL for each compound and serial 1:2 dilutions. A positive control compound was included to qualitatively illustrate concentration-solubility relationships using heat maps. Compound 45 was soluble in physiologic buffer at a concentration of 500 mg/mL, while carnosine was soluble only at concentrations of 250 mg/mL.

[2] = Storage stability by reversed-phase HPLC quantitation of degradation products (impurities); assay type: physicochemical; conditions: storage for 1 or 2 months at 5° C., 25° C./60% RH and 40° C./75% RH; FIGS. 1-3
Method: The stability of Compound 45 and N-acetylcysteine amide (NACA) were determined using reversed-phase HPLC quantitation of the appearance of degradation products (impurities) after storage of the compounds for 1 or 2 months at 5° C., 25° C./60% relative humidity (RH), and 40° C./75% RH.
The chromatographic system used was an Agilent 1100 HPLC comprised of a degasser (model G1322A), pump (model G1311A), autosampler (model G1329A), column compartment (model G1316A), and a diode array detector (model G1315A). Agilent Chemstation software Rev. B.03.02 [341] was used to acquire and analyze all chromatographic data. […] Assay, identity, and purity of Compound 45 and NACA, and quantitation of impurities arising over time, was accomplished by a reversed-phase isocratic method using a Phenomenex Synergi Polar-RP (250×4.6 mm, […]) column at 15° C., 0.2% perchloric acid (PCA) in water and acetonitrile as mobile phase, UV detection at 210 nm, and a standard run time of 20 minutes. Standard solutions of Compound 45 and NACA were prepared in 0.2% perchloric acid to generate standard curves for quantitation of Compound 45 and NACA. Replicate samples of each analyte were collected at study initiation (baseline), after 1 month of storage under the various conditions and after 2 months of storage for quantitation of parent and impurities. […]

[3] = Hydrolysis in human whole blood (disappearance of Compound 45, appearance of NACA and carnosine); assay type: in vitro ADME; conditions: 37° C.
Method: To determine hydrolysis of Compound 45 and appearance of NACA and carnosine in blood, samples of human whole blood from healthy donors anti-coagulated with sodium heparin were thermally equilibrated to, and maintained at 37° C. in a water bath. Compound 45 was then spiked from a single freshly prepared stock solution into blood aliquots to create separate samples of varying Compound 45 starting concentrations (135 μM, 13.5 μM, 10.9 μM [5 μg/mL], and 2.2 μM [1 μg/mL]). Immediately after spiking, tubes were mixed by very gently rocking tubes manually for 5 minutes to ensure homogeneity and remained in the 37° C. water bath until all time points were collected. […] Plasma samples were processed for quantitation of the disappearance (hydrolysis) of Compound 45 and the appearance of NACA or carnosine, as described below. […]
Samples in 96-well plates were analyzed on a Waters Acquity UPLC™ liquid chromatograph interfaced with a Thermo Scientific TSQ Vantage triple quadrupole mass spectrometer with electrospray ionization in the positive ion mode. […]
Compound 45, Carnosine and the NACA-thio-ether derivative product eluted at approximately 1.3 minutes. Compound 45 was detected by selected reaction monitoring of the mass-to-charge (m/z) 371 to 110 transition. Carnosine was detected by selected reaction monitoring of the m/z 227 to 110 transition. […]

[4] = Solubility of stock solutions in dimethyl sulfoxide (DMSO); assay type: physicochemical; conditions: organic solvent or mixture, stock solution in dimethyl sulfoxide
Method: as §1

Which solubility [1] does the source give for `CC(=O)N[C@@H](CSC(=O)[C@H](Cc1cnc[nH]1)NC(=O)CCN)C(N)=O` [Compound 45, (S)-S((R)-2-acetamido-3-amino-3-oxopropyl) 2-(3-aminopropanamido)-3-(1H-imidazol-5-yl)propanethioate] here?
The solubility was no less than 500 mg/mL.

What about the “extent of degradation as measured by the percent change (increase) from baseline in impurities” value [2] of the same compound?
The value was “less than the increase in impurities for NACA”.

And the “metabolism of thioester linkage in blood” value [3]?
The value was “rapidly metabolized in blood”.

And the solubility [4]?
Its solubility is no less than 50 mM.

What does the source list for `NCCC(=O)N[C@@H](Cc1cnc[nH]1)C(=O)O` [carnosine, reference compound]?
solubility [1]: 250 mg/mL (≈ 1110 mM); solubility [4]: < 50 mM

Reference: patent US10028935B2, “Stabilized multi-functional antioxidant compounds and methods of use” (XPD Holdings, LLC, priority 2012, dated 2018)
